# Reference: patent publication US11484567B2, “Use of immune suppressive domains as medicaments” (iSD Immunotech ApS, priority 2013, dated 2022)
# Tests used:
# [1] = system: BMDCs; assay: Cytokine release (type I IFN bioassay) from LPS-treated BMDCs pretreated with peptide; type: cell-based
# [2] = biological target: T1, STING (Homo sapiens, UniProt Q86WV6); assay: Pulldown of HA-tagged STING C-terminal domain with biotinylated INF ISD peptide and streptavidin coated beads, immunoblot; type: binding
# T1 construct: the C-terminal domain of STING was expressed with a HA-tag in HEK293 cells; expressed in transfected cells; host or cells: HEK293
# [3] = system: STING; assay: as above; type: binding
# T1 sequence (Q86WV6 162-379): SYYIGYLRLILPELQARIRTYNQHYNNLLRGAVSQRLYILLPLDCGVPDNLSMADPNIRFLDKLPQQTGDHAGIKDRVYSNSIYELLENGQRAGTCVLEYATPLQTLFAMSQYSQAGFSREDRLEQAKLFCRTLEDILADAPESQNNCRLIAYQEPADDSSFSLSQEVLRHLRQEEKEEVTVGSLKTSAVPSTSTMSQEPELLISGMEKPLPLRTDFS
sequence,measurement,setting,value
GLFGAIAGFIENGWEGCGGEKEKEK [INF ISD peptide],amounts of cytokines released by cells treated with LPS (FIG. 9),"[1]; BMDCs treated with LPS for 16 hours, pretreated with peptide, supernatants analyzed for type I IFN using bioassay",significantly lower amounts of cytokines
same,release of cytokines including pro-inflammatory cytokines such as TNFalpha and IL-6,"[1]; pretreatment of cells with peptide, LPS (Example 3)",decrease in the release of cytokines
same,pulldown of STING deletion mutant DN5 (162-N),[2],readily pulled down
same,pulldown of wt STING,[3],readily pulled down
